Experimental data from EP4752152A1, “STEROID COMPOUND, AND PREPARATION METHOD THEREFOR AND USE THEREOF” (Cholesgen (Shanghai) Co.Ltd., priority 2023, dated 2025).
≈ marks a conversion by molar mass, not a printed value.

How the values were obtained:
[1] = test system: SREBP pathway; assay: SREBP luciferase reporter gene system (SRE-luciferase assay); type: cell-based, human; details: Homo sapiens, Huh-7, 16 h, Huh-7/SRE-luc cells, sterol-deficient medium, 0.01-10 µM
Procedure, shortened: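 Huh-7 cells stably carrying LDLR promoter-luciferase plus GFP were treated 16 h in sterol-deficient medium (5% lipoprotein-deficient serum, 2 µM lovastatin, 10 µM mevalonic acid) at 0.01–10 µM. Luciferase/GFP ratio measured as pathway activity; inhibition versus DMSO fitted to a four-parameter model for IC50.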

[2] = Metabolic stability experiment of mouse liver microsomes; type: in vitro ADME
Method: PB solution (100 mM), MgCl2 solution (300 mM), NADPH solution (2.04 mM), and mouse liver microsome (SHQY catalog number: M1000, batch number: 2110330) solution (1.00 mg/mL) were prepared respectively. […] Then, 100 µL of mouse liver microsome solution was added to a 96-well sample plate. For the 0 min sample, acetonitrile solution containing the internal standard was first added; then, 2 µL of 100 µM working solution was added; followed by the addition of 98 µL of pre-warmed 2.04 mM NADPH at 37°C. For the 5 min, 15 min, 30 min, 45 min, and 60 min samples, 2 µL of 100 µM working solution was first added; followed by the addition of 98 µL of pre-warmed 2.04 mM NADPH at 37°C to initiate the reaction; upon reaching the respective time points, a solution of acetonitrile containing the internal standard was added to terminate the reaction. For the NCF60 sample, 2 µL of 100 µM working solution was first added; followed by the addition of 98 µL of pre-warmed PB at 37°C to initiate the reaction; upon reaching the respective time points, a solution of acetonitrile containing the internal standard was added to terminate the reaction. During the experiment, all samples were incubated in a 37°C water bath. All samples were shaken on an oscillator at 800 rpm for 10 min, then centrifuged at 3200 g for 20 min. The supernatant was aspirated, diluted with deionized water at the corresponding ratio, and analyzed by LC-MS/MS. The remaining percentage of the compound at each time point was obtained by dividing the peak area ratio of the compound at 5, 15, 30, 45, and 60 min by the peak area ratio at 0 min. The half-life (T1/2) of the compound was then calculated using Excel. Table 2: Mouse liver microsome stability results of compounds from some examples

[3] = Solubility in fasted-state simulated intestinal fluid (FaSSIF); type: physicochemical; details: FaSSIF, pH 6.5, fassif, kinetic from dmso stock, FaSSIF pH 6.5, 300 µM sample solution, room temperature
Procedure, shortened: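 Compound from 10.0 mM DMSO stock added to FaSSIF (phosphate/NaCl buffer, pH 6.5) at 300 µM nominal, shaken 1 h at room temperature, 1000 rpm. After centrifugation, supernatant concentration quantified by LC-MS/MS.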

[4] = test system: Fatty Acid Synthase (FASN) gene; assay: Inhibition of FASN gene expression (qPCR) in Huh-7 cells; type: cell-based, human; details: Homo sapiens, Huh-7, 16 h, Huh-7 cells, starvation medium, 16 hours, qPCR; class symbols; read-out: FASN IC50
Procedure, shortened: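 Huh-7 cells switched to starvation DMEM (5% LPDS, 2 µM lovastatin, 10 µM mevalonate) and treated 16 h with compound, top 3000 nM, 3-fold dilutions, 5 concentrations. FASN mRNA by RT-qPCR; inhibition relative to DMSO, IC50 from four-parameter fit.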

| Compound | IC50 [1] | half-life at 1 µM [2] | solubility at 1 h [3] | IC50 [4] |
| --- | --- | --- | --- | --- |
| C[C@H](CCCC(O)c1cccc(F)c1)[C@H]1CC[C@H]2[C@H]3[C@H](CC[C@]12C)[C@@]1(C)CC[C@H](O)[C@H](O)[C@@H]1CC3(F)F (stereo partly drawn) [Compound 44, (1R,3aS,3bS,5aR,6R,7S,9aR,9bS,11aR)-4,4-difluoro-1-[(2R)-6-(3-fluorophenyl)-6-hydroxyhexan-2-yl]-9a,11a-dimethylhexadecahydro-1H-cyclopenta[1,2-a]phenanthrene-6,7-diol] | 0.152 µM | > 3.1 h | 225 µM (≈ 118 µg/mL) | – |
| COc1cccc(F)c1C(O)CCC[C@@H](C)[C@H]1CC[C@H]2[C@H]3[C@H](CC[C@]12C)[C@@]1(C)CC[C@H](O)[C@H](O)[C@@H]1CC3(F)F (stereo partly drawn) [Compound 49, (1R,3aS,3bS,5aR,6R,7S,9aR,9bS,11aR)-4,4-difluoro-1-[(2R)-6-(2-fluoro-6-methoxyphenyl)-6-hydroxyhexan-2-yl]-9a,11a-dimethylhexadecahydro-1H-cyclopenta[1,2-a]phenanthrene-6,7-diol] | 0.06 µM | 1.88 h | 281 µM (≈ 155 µg/mL) | 200 to 500 nM |
| COc1nc(F)ccc1C(O)CCC[C@@H](C)[C@H]1CC[C@H]2[C@H]3[C@H](CC[C@]12C)[C@@]1(C)CC[C@H](O)[C@H](O)[C@@H]1CC3(F)F (stereo partly drawn) [Compound 108, (1R,3aS,3bS,5aR,6R,7S,9aR,9bS,11aR)-4,4-difluoro-1-[(2R)-6-(6-fluoro-2-methoxypyridin-3-yl)-6-hydroxyhexan-2-yl]-9a,11a-dimethylhexadecahydro-1H-cyclopenta[1,2-a]phenanthrene-6,7-diol] | 0.0359 µM | 3.08 h | 303 µM (≈ 168 µg/mL) | < 200 nM |
| COc1ccccc1C(O)CCC[C@@H](C)[C@H]1CC[C@H]2C3=C(F)C[C@H]4[C@@H](O)[C@@H](O)CC[C@]4(C)[C@H]3CC[C@]12C (stereo partly drawn) [Compound 38, (1R,3aR,5aR,6R,7S,9aR,9bR,11aR)-4-fluoro-1-[(2R)-6-hydroxy-6-(2-methoxyphenyl)hexan-2-yl]-9a,11a-dimethyl-2,3,3a,5,5a,6,7,8,9,9a,9b,10,11,11a-tetradecahydro-1H-cyclopenta[1,2-a]phenanthrene-6,7-diol] | 0.11 µM | 0.203 h | 184 µM (≈ 94.8 µg/mL) | – |
| COc1cccc([C@H](O)CCC[C@@H](C)[C@H]2CC[C@H]3[C@H]4[C@H](CC[C@]23C)[C@@]2(C)CC[C@H](O)[C@H](O)[C@@H]2CC4(F)F)c1OC [Compound 71, (1R,3aS,3bS,5aR,6R,7S,9aR,9bS,11aR)-1-[(2R,6R)-6-(2,3-dimethoxyphenyl)-6-hydroxyhexan-2-yl]-4,4-difluoro-9a,11a-dimethylhexadecahydro-1H-cyclopenta[1,2-a]phenanthrene-6,7-diol] | 0.083 µM | 1.05 h | – | < 200 nM |
| C[C@H](CCCC(O)c1ccccc1OC(F)(F)F)[C@H]1CC[C@H]2[C@H]3[C@H](CC[C@]12C)[C@@]1(C)CC[C@H](O)[C@H](O)[C@@H]1CC3(F)F (stereo partly drawn) [Compound 1, (1R,3aS,3bS,5aR,6R,7S,9aR,9bS,11aR)-4,4-difluoro-1-[(2R)-6-hydroxy-6-{2-[(trifluoromethyl)oxy]phenyl}hexan-2-yl]-9a,11a-dimethylhexadecahydro-1H-cyclopenta[1,2-a]phenanthrene-6,7-diol] | 0.33 µM | 2.78 h | 140 µM (≈ 82.4 µg/mL) | – |
| C[C@H](CCCC(O)c1ccccc1F)[C@H]1CC[C@H]2[C@H]3[C@H](CC[C@]12C)[C@@]1(C)CC[C@H](O)C(=O)[C@@H]1CC3(F)F (stereo partly drawn) [Compound 11, (1R,3aS,3bS,5aR,7S,9aR,9bS,11aR)-4,4-difluoro-1-[(2R)-6-(2-fluorophenyl)-6-hydroxyhexan-2-yl]-7-hydroxy-9a,11a-dimethylhexadecahydro-1H-cyclopenta[1,2-a]phenanthren-6-one] | 0.19 µM | 0.819 h | – | 200 to 500 nM |
| COc1ccccc1C(O)CCC[C@@H](C)[C@H]1CC[C@H]2[C@H]3[C@H](CC[C@]12C)[C@@]1(C)CC[C@H](O)CC1CC3(F)F (stereo partly drawn) [Compound 72, (1R,3aS,3bR,7S,9aS,9bS,11aR)-4,4-difluoro-1-[(2R)-6-hydroxy-6-(2-methoxyphenyl)hexan-2-yl]-9a,11a-dimethylhexadecahydro-1H-cyclopenta[1,2-a]phenanthren-7-ol] | 0.14 µM | 1.38 h | – | < 200 nM |
| COc1ccc(C(O)CCC[C@@H](C)[C@H]2CC[C@H]3[C@H]4[C@H](CC[C@]23C)[C@@]2(C)CC[C@H](O)[C@H](O)[C@@H]2CC4(F)F)cc1 (stereo partly drawn) [Compound 50, (1R,3aS,3bS,5aR,6R,7S,9aR,9bS,11aR)-4,4-difluoro-1-[(2R)-6-(4-methoxyphenyl)-6-hydroxyhexan-2-yl]-9a,11a-dimethylhexadecahydro-1H-cyclopenta[1,2-a]phenanthrene-6,7-diol] | 0.188 µM | 1.8 h | 248 µM (≈ 132 µg/mL) | – |
| COc1cccc(C(O)CCC[C@@H](C)[C@H]2CC[C@H]3[C@H]4[C@H](CC[C@]23C)[C@@]2(C)CC[C@H](O)[C@H](O)[C@@H]2CC4(F)F)c1 (stereo partly drawn) [Compound 39, (1R,3aS,3bS,5aR,6R,7S,9aR,9bS,11aR)-4,4-difluoro-1-[(2R)-6-hydroxy-6-(3-methoxyphenyl)hexan-2-yl]-9a,11a-dimethylhexadecahydro-1H-cyclopenta[1,2-a]phenanthrene-6,7-diol] | 0.19 µM | 1.95 h | 177 µM (≈ 94.6 µg/mL) | – |
| C[C@H](CCCC(O)c1c(F)cccc1F)[C@H]1CC[C@H]2[C@H]3[C@H](CC[C@]12C)[C@@]1(C)CC[C@H](O)CC1CC3(F)F (stereo in doubt) [Compound 87, (1R,3aS,3bR,7S,9aS,9bS,11aR)-1-[(2R)-6-(2,6-difluorophenyl)-6-hydroxyhexan-2-yl]-4,4-difluoro-9a,11a-dimethylhexadecahydro-1H-cyclopenta[1,2-a]phenanthren-7-ol] | 0.055 µM | 2.26 h | – | < 200 nM |
| C[C@H](CCCC(O)c1cccc2c1OC(F)(F)O2)[C@H]1CC[C@H]2[C@H]3[C@H](CC[C@]12C)[C@@]1(C)CC[C@H](O)[C@H](O)[C@@H]1CC3(F)F (stereo partly drawn) [Compound 77, (1R,3aS,3bS,5aR,6R,7S,9aR,9bS,11aR)-1-[(2R)-6-(2,2-difluorobenzo[d][1,3]dioxol-4-yl)-6-hydroxyhexan-2-yl]-4,4-difluoro-9a,11a-dimethylhexadecahydro-1H-cyclopenta[1,2-a]phenanthrene-6,7-diol] | 0.17 µM | > 3.08 h | – | < 200 nM |
| C[C@H](CCCC(O)c1ccccc1OC(F)(F)F)[C@H]1CC[C@H]2[C@H]3[C@H](CC[C@]12C)[C@@]1(C)CC[C@H](O)C(=O)[C@@H]1CC3(F)F (stereo partly drawn) [Compound 97, (1R,3aS,3bS,5aR,7S,9aR,9bS,11aR)-4,4-difluoro-7-hydroxy-1-[(2R)-6-hydroxy-6-{2-[(trifluoromethyl)oxy]phenyl}hexan-2-yl]-9a,11a-dimethylhexadecahydro-1H-cyclopenta[1,2-a]phenanthren-6-one] | 0.0741 µM | 1.78 h | – | < 200 nM |
| COc1c(F)cccc1C(O)CCC[C@@H](C)[C@H]1CC[C@H]2[C@H]3[C@H](CC[C@]12C)[C@@]1(C)CC[C@H](O)[C@H](O)[C@@H]1CC3(F)F (stereo partly drawn) [Compound 46, (1R,3aS,3bS,5aR,6R,7S,9aR,9bS,11aR)-4,4-difluoro-1-[(2R)-6-(2-methoxy-3-fluorophenyl)-6-hydroxyhexan-2-yl]-9a,11a-dimethylhexadecahydro-1H-cyclopenta[1,2-a]phenanthrene-6,7-diol] | 0.07 µM | 2.6 h | 277 µM (≈ 153 µg/mL) | – |
| C[C@H](CCCC(O)c1c(F)cccc1F)[C@H]1CC[C@H]2C3=C(F)C[C@H]4[C@@H](O)[C@@H](O)CC[C@]4(C)[C@H]3CC[C@]12C (stereo partly drawn) [Compound 21, (1R,3aR,5aR,6R,7S,9aR,9bR,11aR)-1-[(2R)-6-(2,6-difluorophenyl)-6-hydroxyhexan-2-yl]-4-fluoro-9a,11a-dimethyl-2,3,3a,5,5a,6,7,8,9,9a,9b,10,11,11a-tetradecahydro-1H-cyclopenta[1,2-a]phenanthrene-6,7-diol] | 0.23 µM | 2.69 h | 246 µM (≈ 128 µg/mL) | – |
